Measurements as given in patent US8916702B2 (priority 2012, dated 2014).

Tested on: HCV pseudoparticles (genotype 1a HCV E1 and E2 envelope, H77C isolate)
Test: microbe, parasite or virus in culture
Type: cell-based
Conditions: Hepatitis C virus, Huh-7, 48 h, HCV pseudoparticle infection of Huh7 cells, luciferase 2 days after infection; average of duplicates

| SMILES | EC50 [nM] |
| --- | --- |
| CC1(C)[C@H]2C[C@@]1(C)CCC2CNC(=O)C(=O)NCC[C@H](NC(=O)c1ccc(Nc2nc(NC3(c4ccc(Cl)cc4)CC3)nc(OCC(F)(F)F)n2)cc1)C(=O)O (stereo partly drawn) [Compound 1211] | 0.13 |
| CCOC(=O)[C@H](CCNC(=O)C(N)=O)NC(=O)c1ccc(Nc2nc(NC3(c4ccc(Cl)cc4)CC3)nc(OCC(F)(F)F)n2)cc1 [Compound 1028, (S)-ethyl 4-(2-amino-2-oxoacetamido)-2-(4-(4-(1-(4-chlorophenyl)cyclopropylamino)-6-(2,2,2-trifluoroethoxy)-1,3,5-triazin-2-ylamino)benzamido)butanoate] | 0.4 |

Same assay, conditions: Hepatitis C virus, Huh-7, 48 h, HCV pseudoparticles, Huh7 cells, luciferase 2 days after infection; average of duplicates

| SMILES | EC50 [nM] |
| --- | --- |
| COC(=O)[C@H](CNC(=O)C(=O)Nc1cccc(Oc2cccnc2)c1)NC(=O)c1ccc(Nc2nc(NC3(c4ccc(Cl)cc4)CC3)nc(OCC(F)(F)F)n2)cc1 [Compound 3737] | 1.63 |

Same assay, conditions: Hepatitis C virus, Huh-7, 48 h, read-out: Activity (EC50 class), HCV pseudoparticle infection of Huh7 cells, luciferase 2 days after infection; EC50 expressed as class A/B

| SMILES | EC50 [nM] |
| --- | --- |
| CC1(C)[C@H]2C[C@@]1(C)CCC2CNC(=O)C(=O)NCC[C@H](NC(=O)c1ccc(Nc2nc(NC3(c4ccc(Cl)cc4)CC3)nc(OCC(F)(F)F)n2)cc1)C(=O)O (stereo partly drawn) [Compound 1211] | 0.01 to 10 |
| O=C(NCC[C@H](NC(=O)c1ccc(Nc2nc(NC3(c4ccc(Cl)cc4)CC3)nc(OCC(F)(F)F)n2)cc1)C(=O)O)C(=O)NC1(Cc2ccccc2)CC1 [Compound 1346] | 0.01 to 10 |
| COC(=O)[C@H](CNC(=O)C(=O)NCCc1cccc(F)c1)NC(=O)c1ccc(Nc2nc(NC3(c4ccc(Cl)cc4)CC3)nc(OCC(F)(F)F)n2)cc1 [Compound 1289] | 0.01 to 10 |
| O=C(NCC[C@H](NC(=O)c1ccc(Nc2nc(NC3(c4ccc(Cl)cc4)CC3)nc(OCC(F)(F)F)n2)cc1)C(=O)O)C(=O)Nc1ccc(C(F)(F)F)cc1 [Compound 1275] | 0.01 to 10 |
| CC(C)(CNC(=O)C(=O)Nc1cccc(Cl)c1)CNC(=O)c1ccc(Nc2nc(NC3(c4ccc(Cl)cc4)CC3)nc(OCC(F)(F)F)n2)cc1 [Compound 1561] | 0.01 to 10 |
| COc1ccc(NC(=O)C(=O)NC[C@H](NC(=O)c2ccc(Nc3nc(NC4(c5ccc(Cl)cc5)CC4)nc(OCC(F)(F)F)n3)cc2)C(=O)O)cn1 [Compound 1349] | 0.01 to 10 |
| COC(=O)[C@H](CNC(=O)C(=O)NC1(Cc2ccccc2)CC1)NC(=O)c1ccc(Nc2nc(NC3(c4ccc(Cl)cc4)CC3)nc(OCC(F)(F)F)n2)cc1 [Compound 1304] | 0.01 to 10 |
| COC(=O)[C@H](CCCNC(=O)C(N)=O)NC(=O)c1ccc(Nc2nc(NC3(c4ccc(Cl)cc4)CC3)nc(OCC(F)(F)F)n2)cc1 [Compound 1012, (S)-methyl 5-(2-amino-2-oxoacetamido)-2-(4-(4-(1-(4-chlorophenyl)cyclopropylamino)-6-(2,2,2-trifluoroethoxy)-1,3,5-triazin-2-ylamino)benzamido)pentanoate] | 0.01 to 10 |
| COC(=O)[C@H](CNC(=O)C(=O)NC1CCCCC1)NC(=O)c1ccc(Nc2nc(NC3(c4ccc(Cl)cc4)CC3)nc(OCC(F)(F)F)n2)cc1 [Compound 1132] | 0.01 to 10 |
| COc1cccc(-c2ccc(NC(=O)C(=O)NCC(C)(C)CNC(=O)c3ccc(Nc4nc(NC5(c6ccc(Cl)cc6)CC5)nc(OCC(F)(F)F)n4)cc3)cc2)c1 [Compound 1581] | 0.01 to 10 |
| CC(C)(CNC(=O)C(=O)Nc1ccc(Oc2nn[nH]n2)cc1)CNC(=O)c1ccc(Nc2nc(NC3(c4ccc(Cl)cc4)CC3)nc(OCC(F)(F)F)n2)cc1 [Compound 1490] | 0.01 to 10 |
| CCOC(=O)[C@H](CCNC(=O)C(N)=O)NC(=O)c1ccc(Nc2nc(NC3(c4ccc(Cl)cc4)CC3)nc(OCC(F)(F)F)n2)cc1 [Compound 1028, (S)-ethyl 4-(2-amino-2-oxoacetamido)-2-(4-(4-(1-(4-chlorophenyl)cyclopropylamino)-6-(2,2,2-trifluoroethoxy)-1,3,5-triazin-2-ylamino)benzamido)butanoate] | 0.01 to 10 |
| COC(=O)[C@H](CNC(=O)C(=O)NCCn1ccnc1C)NC(=O)c1ccc(Nc2nc(NC3(c4ccc(Cl)cc4)CC3)nc(OCC(F)(F)F)n2)cc1 [Compound 1301] | 0.01 to 10 |
| COC(=O)[C@H](CCNC(=O)C(=O)NC1CCCCC1C)NC(=O)c1ccc(Nc2nc(NC3(c4ccc(Cl)cc4)CC3)nc(OCC(F)(F)F)n2)cc1 (stereo partly drawn) [Compound 1075] | 0.01 to 10 |
| O=C(NCC[C@H](NC(=O)c1ccc(Nc2nc(NC3(c4ccc(Cl)cc4)CC3)nc(OCC(F)(F)F)n2)cc1)C(=O)O)C(=O)Nc1ccccc1F [Compound 1273] | 0.01 to 10 |
| CCOC(=O)[C@H](CCCNC(=O)C(N)=O)NC(=O)c1ccc(Nc2nc(NC3(c4ccc(Cl)cc4)CC3)nc(OCC(F)(F)F)n2)cc1 [Compound 1029, (S)-ethyl 5-(2-amino-2-oxoacetamido)-2-(4-(4-(1-(4-chlorophenyl)cyclopropylamino)-6-(2,2,2-trifluoroethoxy)-1,3,5-triazin-2-ylamino)benzamido)pentanoate] | 0.01 to 10 |
| COC(=O)[C@H](CCNC(=O)C(=O)Nc1cn[nH]c1)NC(=O)c1ccc(Nc2nc(NC3(c4ccc(Cl)cc4)CC3)nc(OCC(F)(F)F)n2)cc1 [Compound 1224] | 0.01 to 10 |
| COC(=O)[C@@H](CCNC(=O)C(=O)NCC1(CN2CCOCC2)CC1)NC(=O)c1ccc(Nc2nc(NC3(c4ccc(Cl)cc4)CC3)nc(OCC(F)(F)F)n2)cc1 [Compound 1382] | 0.01 to 10 |
| O=C(NCC[C@@H](NC(=O)c1ccc(Nc2nc(NC3(c4ccc(Cl)cc4)CC3)nc(OCC(F)(F)F)n2)cc1)C(=O)O)C(=O)Nc1ccccc1Cl [Compound 1534] | 0.01 to 10 |
| COC(=O)[C@H](CNC(=O)C(=O)Nc1ccnn1C)NC(=O)c1ccc(Nc2nc(NC3(c4ccc(Cl)cc4)CC3)nc(OCC(F)(F)F)n2)cc1 [Compound 1260] | 0.01 to 10 |
| COC(=O)[C@H](CCNC(=O)C(=O)NC[C@H]1C[C@H]1c1ccc(C)cc1)NC(=O)c1ccc(Nc2nc(NC3(c4ccc(Cl)cc4)CC3)nc(OCC(F)(F)F)n2)cc1 [Compound 1393] | 0.01 to 10 |
| CC(C)(CNC(=O)C(=O)Nc1ccc(-c2cccc(C(=O)O)c2)cc1)CNC(=O)c1ccc(Nc2nc(NC3(c4ccc(Cl)cc4)CC3)nc(OCC(F)(F)F)n2)cc1 [Compound 1543] | 0.01 to 10 |
| COc1ccccc1CCNC(=O)C(=O)NC[C@H](NC(=O)c1ccc(Nc2nc(NC3(c4ccc(Cl)cc4)CC3)nc(OCC(F)(F)F)n2)cc1)C(=O)O [Compound 1397] | 0.01 to 10 |

Same assay, conditions: Hepatitis C virus, Huh-7, 48 h, read-out: Activity (EC50 class), HCV pseudoparticles, Huh7 cells, luciferase 2 days after infection; average of duplicates

| SMILES | EC50 [nM] |
| --- | --- |
| COC(=O)[C@H](CNC(=O)C(=O)Nc1cccc(C(N)=O)c1)NC(=O)c1ccc(Nc2nc(NC3(c4ccc(Cl)cc4)CC3)nc(OCC(F)(F)F)n2)cc1 [Compound 3689] | 0.01 to 10 |
| Cc1ccc(NC(=O)C(=O)NCC(C)(C)CNC(=O)c2ccc(Nc3nc(NC4(c5ccc(Cl)cc5)CC4)nc(OCc4cccc(F)c4)n3)cc2)cc1 [Compound 3846] | 0.01 to 10 |
| COC(=O)[C@H](CNC(=O)C(=O)Nc1cccc(Oc2cccnc2)c1)NC(=O)c1ccc(Nc2nc(NC3(c4ccc(Cl)cc4)CC3)nc(OCC(F)(F)F)n2)cc1 [Compound 3737] | 0.01 to 10 |
| COC(=O)[C@H](CNC(=O)C(=O)Nc1cccc(S(C)(=O)=O)c1)NC(=O)c1ccc(Nc2nc(NC3(c4ccc(Cl)cc4)CC3)nc(OCC(F)(F)F)n2)cc1 [Compound 3707] | 0.01 to 10 |
| COc1cc2sc(NC(=O)C(=O)NCC(C)(C)CNC(=O)c3ccc(Nc4nc(NC5(c6ccc(Cl)cc6)CC5)nc(OCC(F)(F)F)n4)cc3F)nc2cc1Cl [Compound 3680] | 0.01 to 10 |
| COC(=O)[C@H](CNC(=O)C(=O)Nc1cccc(OC(F)(F)F)c1)NC(=O)c1ccc(Nc2nc(NC3(c4ccc(Cl)cc4)CC3)nc(OCC(F)(F)F)n2)cc1 [Compound 3693] | 0.01 to 10 |
| CS(=O)(=O)c1cccc(NC(=O)C(=O)NC[C@H](NC(=O)c2ccc(Nc3nc(NC4(c5ccc(Cl)cc5)CC4)nc(OCC(F)(F)F)n3)cc2)C(=O)O)c1 [Compound 3763] | 0.01 to 10 |
| COc1cc2nc(NC(=O)C(=O)NCC(C)(C)CNC(=O)c3ccc(Nc4nc(NC5(c6ccc(Cl)cc6)CC5)nc(OCC(F)(F)F)n4)cc3)sc2cc1OC [Compound 3665] | 0.01 to 10 |
| O=C(NCC[C@H](NC(=O)c1ccc(Nc2nc(NC3(c4ccc(Cl)cc4)CC3)nc(OCC(F)(F)F)n2)cc1)C(=O)O)C(=O)Nc1cccc(-c2ccncc2)c1 [Compound 3637] | 0.01 to 10 |

Same assay, conditions: Hepatitis C virus, Huh-7, read-out: Activity (EC50 class), HCV pseudoparticles (genotype 1a, H77C) in Huh7 cells; EC50 expressed as class A/B

| SMILES | EC50 [nM] |
| --- | --- |
| CC(C)(CNC(=O)C(=O)Nc1ccc(F)cc1F)CNC(=O)c1ccc(Nc2nc(NC3(c4ccc(Cl)cc4)CC3)nc(OCC(F)(F)F)n2)cc1F [Compound 3555] | 0.01 to 10 |
| CC(C)(CNC(=O)C(=O)NS(C)(=O)=O)CNC(=O)c1ccc(Nc2nc(NC3(c4ccc(Cl)cc4)CC3)nc(OCC(F)(F)F)n2)cc1 [Compound 3031] | 0.01 to 10 |
| C=Cc1ccccc1NC(=O)C(=O)NCC(C)(C)CNC(=O)c1ccc(Nc2nc(NC3(c4ccc(Cl)cc4)CC3)nc(OCC(F)(F)F)n2)cc1 [Compound 3362] | 0.01 to 10 |
| COC(=O)[C@H](CCNC(=O)C(=O)Nc1ccc(OCC(F)(F)F)cc1)NC(=O)c1ccc(Nc2nc(NC3(c4ccc(Cl)cc4)CC3)nc(OCC(F)(F)F)n2)cc1 [Compound 3125] | 0.01 to 10 |
| COC(=O)[C@H](CNC(=O)C(=O)Nc1ccc(C(N)=O)cc1)NC(=O)c1ccc(Nc2nc(NC3(c4ccc(Cl)cc4)CC3)nc(OCC(F)(F)F)n2)cc1 [Compound 3088] | 0.01 to 10 |
| O=C(NC[C@H](NC(=O)c1ccc(Nc2nc(NC3(c4ccc(Cl)cc4)CC3)nc(OCC(F)(F)F)n2)cc1)C(=O)O)C(=O)Nc1ccc(-n2cnnn2)cc1 [Compound 3276] | 0.01 to 10 |
| CC(C)(CNC(=O)C(N)=O)CNC(=O)c1ccc(Nc2nc(NC3(c4ccccc4F)CC3)nc(OCC(F)(F)F)n2)cc1 [Compound 3243] | 0.01 to 10 |
| Cn1ccc(NC(=O)C(=O)NCC(C)(C)CNC(=O)c2ccc(Nc3nc(NC4(c5ccc(Cl)cc5)CC4)nc(OCC(F)(F)F)n3)cc2)n1 [Compound 3023] | 0.01 to 10 |
| COC(=O)[C@H](CNC(=O)C(=O)Nc1ccc(-c2ccccc2C)cc1)NC(=O)c1ccc(Nc2nc(NC3(c4ccc(Cl)cc4)CC3)nc(OCC(F)(F)F)n2)cc1 [Compound 3187] | 0.01 to 10 |
| CC(C)(CNC(=O)C(=O)Nc1ccccc1C(N)=O)CNC(=O)c1ccc(Nc2nc(NC3(c4ccc(Cl)cc4)CC3)nc(OCC(F)(F)F)n2)cc1 [Compound 3375] | 0.01 to 10 |
| CCOc1ccc(NC(=O)C(=O)NCC[C@H](NC(=O)c2ccc(Nc3nc(NC4(c5ccc(Cl)cc5)CC4)nc(OCC(F)(F)F)n3)cc2)C(=O)OC)cc1 [Compound 3327] | 0.01 to 10 |
| CCC(CC)CCNC(=O)c1ccc(NC(=O)C(=O)NC[C@H](NC(=O)c2ccc(Nc3nc(NC4(c5ccc(Cl)cc5)CC4)nc(OCC(F)(F)F)n3)cc2)C(=O)OC)cc1 [Compound 3089] | 0.01 to 10 |
| C=C(C)c1ccccc1NC(=O)C(=O)NCC(C)(C)CNC(=O)c1ccc(Nc2nc(NC3(c4ccc(Cl)cc4)CC3)nc(OCC(F)(F)F)n2)cc1 [Compound 3140] | 0.01 to 10 |
